Experimental data taken from patent publication US20210269434A1, “TRICYCLIC COMPOUNDS AS INHIBITORS OF KRAS” (Incyte Corporation, priority 2020, published 2021).

Key:
[1] = test system: MIA PaCa-2 (KRAS G12C) cells; experiment: Cellular pERK HTRF assay (KRAS_G12C pERK); assay type: cell-based, human; conditions: Homo sapiens, MIA PaCa-2, 4 hours incubation, read-out: G12C_pERK
Outline: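 MIA PaCa-2 cells plated overnight, then exposed to compound for 4 h at 37 °C (G12C compounds). Phospho-ERK1/2 measured in lysates by HTRF (665/620 nm) after overnight antibody incubation; IC50 from percent inhibition versus log concentration.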

KRAS G12C = KRAS G12C (Homo sapiens, UniProt P01116, G12C); experiment: GDP-GTP exchange assay (KRAS_G12C exchange); assay type: biochemical; conditions: bodipy-GDP loaded KRAS G12C 2.5 nM, SOS1 150 nM, GppNHp; 2 hours pre-incubation, 2 hours reaction; read-out: G12C_exchange
Outline: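 Fluorescence exchange of bodipy-GDP for GppNHp, SOS1-driven, read at 485/520 nm; IC50 from four-parameter variable-slope fit. Both mutants used 2.5 nM final labelled protein and a 2 h compound pre-incubation. G12C reaction had 500 uM GppNHp and 150 nM SOS1 for 2 h; G12D ran 4 h.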

Chain of KRAS G12C (P01116 1-188 isoform P01116-2 G12C): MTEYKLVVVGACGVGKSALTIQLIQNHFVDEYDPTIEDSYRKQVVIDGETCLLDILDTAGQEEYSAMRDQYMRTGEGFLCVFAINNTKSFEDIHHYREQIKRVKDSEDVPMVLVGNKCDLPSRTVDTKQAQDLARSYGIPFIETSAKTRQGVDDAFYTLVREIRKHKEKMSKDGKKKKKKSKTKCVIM

Row | IC50 [1] [nM] | IC50 (KRAS G12C) [nM] | SMILES
1 | ≤ 100 | ≤ 100 | Cc1cccc(-c2c(C)cc3c(nc(O[C@@H](C)CN(C)C)c4nnn([C@H]5CCN(C(=O)/C=C/CF)[C@H](CC#N)C5)c43)c2F)c1C [Example 143, 2-((2S,4S)-4-(4-(((S)-1-(dimethylamino)propan-2-yl)oxy)-7-(2,3-dimethylphenyl)-6-fluoro-8-methyl-1H-[1,2,3]triazolo[4,5-c]quinolin-1-yl)-1-((E)-4-fluorobut-2-enoyl)piperidin-2-yl)acetonitrile]
2 | ≤ 100 | ≤ 100 | Cc1cccc(-c2c(C)cc3c(nc(O[C@@H](C)CN(C)C)c4nnn([C@H]5CCN(C(=O)/C=C/C(F)F)[C@H](CC#N)C5)c43)c2F)c1C [Example 144, 2-((2S,4S)-1-((E)-4,4-difluorobut-2-enoyl)-4-(4-(((S)-1-(dimethylamino)-propan-2-yl)oxy)-7-(2,3-dimethylphenyl)-6-fluoro-8-methyl-1H-[1,2,3]triazolo[4,5-c]quinolin-1-yl)piperidin-2-yl)acetonitrile]
3 | ≤ 100 | ≤ 100 | COC/C=C/C(=O)N1CC[C@H](n2nnc3c(O[C@@H](C)CN(C)C)nc4c(F)c(-c5cccc(C)c5C)c(C)cc4c32)C[C@H]1CC#N [Example 145, 2-((2S,4S)-4-(4-(((S)-1-(dimethylamino)propan-2-yl)oxy)-7-(2,3-dimethylphenyl)-6-fluoro-8-methyl-1H-[1,2,3]triazolo[4,5-c]quinolin-1-yl)-1-((E)-4-methoxybut-2-enoyl)piperidin-2-yl)acetonitrile]
4 | ≤ 100 | ≤ 100 | CC#CC(=O)N1CC[C@H](n2nnc3c(O[C@@H](C)CN(C)C)nc4c(F)c(-c5cccc(C)c5C)c(C)cc4c32)C[C@H]1CC#N [Example 146, 2-((2S,4S)-1-(but-2-ynoyl)-4-(4-(((S)-1-(dimethylamino)propan-2-yl)oxy)-7-(2,3-dimethylphenyl)-6-fluoro-8-methyl-1H-[1,2,3]triazolo[4,5-c]quinolin-1-yl)piperidin-2-yl)acetonitrile]
5 | ≤ 100 | ≤ 100 | C=CC(=O)N1CC[C@H](n2nnc3c(N4CC(N(C)C)C4)nc4c(F)c(-c5cccc(C)c5C)c(C)cc4c32)C[C@H]1CC#N [Example 147, 2-((2S,4S)-1-acryloyl-4-(4-(3-(dimethylamino)azetidin-1-yl)-7-(2,3-dimethylphenyl)-6-fluoro-8-methyl-1H-[1,2,3]triazolo[4,5-c]quinolin-1-yl)piperidin-2-yl)acetonitrile]
6 | ≤ 100 | ≤ 100 | Cc1cccc(-c2c(C)cc3c(nc(N4CC(N(C)C)C4)c4nnn([C@H]5CCN(C(=O)/C=C/C(F)F)[C@H](CC#N)C5)c43)c2F)c1C [Example 148, 2-((2S,4S)-1-((E)-4,4-difluorobut-2-enoyl)-4-(4-(3-(dimethylamino)azetidin-1-yl)-7-(2,3-dimethylphenyl)-6-fluoro-8-methyl-1H-[1,2,3]triazolo[4,5-c]quinolin-1-yl)piperidin-2-yl)acetonitrile]
7 | ≤ 100 | ≤ 100 | Cc1cccc(-c2c(Cl)cc3c(nc(N4CC(N(C)C)C4)c4ncn([C@H]5CCN(C(=O)/C=C/CF)[C@H](CC#N)C5)c43)c2F)c1C [Example 149, 2-((2S,4S)-4-(8-chloro-4-(3-(dimethylamino)azetidin-1-yl)-7-(2,3-dimethylphenyl)-6-fluoro-1H-imidazo[4,5-c]quinolin-1-yl)-1-((E)-4-fluorobut-2-enoyl)piperidin-2-yl)acetonitrile]

The next lines start with the compound.

Row | SMILES | IC50 [1] [nM] | IC50 (KRAS G12C) [nM]
8 | C=CC(=O)N1CC[C@H](n2nnc3c(OC[C@@H]4CCCN4C)nc4c(F)c(-c5ccc(F)cc5)c(C)cc4c32)C[C@H]1CC#N [Example 135, 2-((2S,4S)-1-acryloyl-4-(6-fluoro-7-(4-fluorophenyl)-8-methyl-4-(((S)-1-methylpyrrolidin-2-yl)methoxy)-1H-[1,2,3]triazolo[4,5-c]quinolin-1-yl)piperidin-2-yl)acetonitrile] | ≤ 100 | ≤ 100
9 | Cc1cc2c(nc(OC[C@@H]3CCCN3C)c3nnn([C@H]4CCN(C(=O)/C=C/CF)[C@H](CC#N)C4)c32)c(F)c1-c1ccc(F)cc1 [Example 136, 2-((2S,4S)-4-(6-fluoro-7-(4-fluorophenyl)-8-methyl-4-(((S)-1-methylpyrrolidin-2-yl)methoxy)-1H-[1,2,3]triazolo[4,5-c]quinolin-1-yl)-1-((E)-4-fluorobut-2-enoyl)piperidin-2-yl)acetonitrile] | ≤ 100 | ≤ 100
10 | C=CC(=O)N1CC[C@H](n2nnc3c(OC[C@@H]4CCCN4C)nc4c(F)c(-c5cccc(C)c5C)c(C)cc4c32)C[C@H]1CC#N [Example 137, 2-((2S,4S)-1-acryloyl-4-(7-(2,3-dimethylphenyl)-6-fluoro-8-methyl-4-(((S)-1-methylpyrrolidin-2-yl)methoxy)-1H-[1,2,3]triazolo[4,5-c]quinolin-1-yl)piperidin-2-yl)acetonitrile] | ≤ 100 | ≤ 100
11 | Cc1cccc(-c2c(C)cc3c(nc(OC[C@@H]4CCCN4C)c4nnn([C@H]5CCN(C(=O)/C=C/CF)[C@H](CC#N)C5)c43)c2F)c1C [Example 138, 2-((2S,4S)-4-(7-(2,3-dimethylphenyl)-6-fluoro-8-methyl-4-(((S)-1-methylpyrrolidin-2-yl)methoxy)-1H-[1,2,3]triazolo[4,5-c]quinolin-1-yl)-1-((E)-4-fluorobut-2-enoyl)piperidin-2-yl)acetonitrile] | ≤ 100 | ≤ 100
12 | CC#CC(=O)N1CC[C@H](n2nnc3c(OC[C@@H]4CCCN4C)nc4c(F)c(-c5cccc(C)c5C)c(C)cc4c32)C[C@H]1CC#N [Example 139, 2-((2S,4S)-1-(but-2-ynoyl)-4-(7-(2,3-dimethylphenyl)-6-fluoro-8-methyl-4-(((S)-1-methylpyrrolidin-2-yl)methoxy)-1H-[1,2,3]triazolo[4,5-c]quinolin-1-yl)piperidin-2-yl)acetonitrile] | ≤ 100 | ≤ 100
13 | COC/C=C/C(=O)N1CC[C@H](n2nnc3c(OC[C@@H]4CCCN4C)nc4c(F)c(-c5cccc(C)c5C)c(C)cc4c32)C[C@H]1CC#N [Example 140, 2-((2S,4S)-4-(7-(2,3-dimethylphenyl)-6-fluoro-8-methyl-4-(((S)-1-methylpyrrolidin-2-yl)methoxy)-1H-[1,2,3]triazolo[4,5-c]quinolin-1-yl)-1-((E)-4-methoxybut-2-enoyl)piperidin-2-yl)acetonitrile] | ≤ 100 | ≤ 100
14 | Cc1cccc(-c2c(C)cc3c(nc(OC[C@@H]4CCCN4C)c4nnn([C@H]5CCN(C(=O)/C=C/C(F)F)[C@H](CC#N)C5)c43)c2F)c1C [Example 141, 2-((2S,4S)-1-((E)-4,4-difluorobut-2-enoyl)-4-(7-(2,3-dimethylphenyl)-6-fluoro-8-methyl-4-(((S)-1-methylpyrrolidin-2-yl)methoxy)-1H-[1,2,3]triazolo[4,5-c]quinolin-1-yl)piperidin-2-yl)acetonitrile] | ≤ 100 | ≤ 100
15 | C=CC(=O)N1CC[C@H](n2nnc3c(O[C@@H](C)CN(C)C)nc4c(F)c(-c5cccc(C)c5C)c(C)cc4c32)C[C@H]1CC#N [Example 142, 2-((2S,4S)-1-acryloyl-4-(4-(((S)-1-(dimethylamino)propan-2-yl)oxy)-7-(2,3-dimethylphenyl)-6-fluoro-8-methyl-1H-[1,2,3]triazolo[4,5-c]quinolin-1-yl)piperidin-2-yl)acetonitrile] | ≤ 100 | ≤ 100
